Measured values taken from patent US8211606B2, “Coloring compound, yellow toner, sheet for heat-sensitive transfer recording, and ink” (Canon Kabushiki Kaisha, priority 2007, dated 2012).

Assays:
[1] = Light resistance evaluation of coloring compound on paper, Sun Tester irradiation (color difference ΔE); assay type: physicochemical; settings: 765 w/m^2, 50° C., irradiation time 20 hours, on CLC color copy paper
Method: A coloring compound was dissolved in tetrahydrofuran/cyclohexanone (=1/1 (v/v)) to prepare a 0.04 mol/L solution, which was then filtered with a filter (Φ0.2 μm). The prepared coloring compound solution was applied on CLC color copy paper (manufactured by Canon Inc.) by a bar coat method (Bar No. 3) and air-dried overnight. The test paper was then subjected to an irradiation experiment using Sun Tester (XF-180CPS, manufactured by Shimadzu Corporation) under the conditions of an illuminance of 765 w/m^2, a temperature of 50° C. and an irradiation time of 20 hours. The test paper before and after irradiation was analyzed by means of SpectroLino (from Gretag Machbeth). Optical density and chromaticity (L*, a*, b*) were determined on the basis of the L*a*b* color system. Color difference (ΔE) was calculated according to the following equation on the basis of measurements of the color characteristics.
The evaluation was performed as below.
A: The ΔE value is less than 10.
B: The ΔE value is 10 or more and less than 20.
C: The ΔE value is 20 or more.
The ΔE value of less than 20 was determined to indicate good light resistance.

[2] = Solubility check: solubility of coloring compound in chloroform at room temperature; assay type: physicochemical
Method: A solubility test was performed to measure the solubility of a coloring compound in chloroform at room temperature. The solubility was evaluated as described below.
A: 5% or more solubility in chloroform
B: 1% or more and less than 5% solubility in chloroform
C: less than 1% solubility in chloroform
A solubility of 1% or more in chloroform was determined to indicate high compatibility with resin.

Row | SMILES | Light Resistance [1] | Solubility [2]
1 | CCn1c(O)c(/N=N/c2ccccc2[N+](=O)[O-])c(C)c(C(N)=O)c1=O [(2), reference compound] | C (The ΔE value is 20 or more.) | C (less than 1% solubility in chloroform)
2 | CCCCC(CC)Cn1c(O)c(N=Nc2cc(F)c(F)cc2[N+](=O)[O-])c(C)c(C(N)=O)c1=O (stereo not shown) [(7)] | B (The ΔE value is 10 or more and less than 20.) | A (5% or more solubility in chloroform)
3 | CCCCC(CC)Cn1c(O)c(N=Nc2c([N+](=O)[O-])cc(F)c(F)c2F)c(C)c(C(N)=O)c1=O (stereo not shown) [(8)] | B (The ΔE value is 10 or more and less than 20.) | A (5% or more solubility in chloroform)
4 | CCCCC(CC)Cn1c(O)c(N=Nc2c([N+](=O)[O-])cc(C(F)(F)F)cc2[N+](=O)[O-])c(C)c(C(N)=O)c1=O (stereo not shown) [(9)] | B (The ΔE value is 10 or more and less than 20.) | B (1% or more and less than 5% solubility in chloroform)
5 | CCCCC(CC)Cn1c(O)c(N=Nc2c(Br)cc(C(F)(F)F)cc2[N+](=O)[O-])c(C)c(C(N)=O)c1=O (stereo not shown) [(10)] | A (The ΔE value is less than 10.) | B (1% or more and less than 5% solubility in chloroform)
6 | CCCCC(CC)Cn1c(O)c(N=Nc2ccc(C#N)cc2[N+](=O)[O-])c(C)c(C(N)=O)c1=O (stereo not shown) [(11)] | A (The ΔE value is less than 10.) | A (5% or more solubility in chloroform)
7 | CCCCC(CC)Cn1c(O)c(N=Nc2ccc(C(F)(F)F)cc2[N+](=O)[O-])c(C)c(C(N)=O)c1=O (stereo not shown) [(12)] | A (The ΔE value is less than 10.) | A (5% or more solubility in chloroform)
8 | CCn1c(O)c(N=Nc2ccc(C(F)(F)F)cc2[N+](=O)[O-])c(-c2ccccc2)c(C(=O)NC(C)(C)C)c1=O [(13)] | B (The ΔE value is 10 or more and less than 20.) | A (5% or more solubility in chloroform)
9 | CCCCC(C)(CC)NC(=O)c1c(C)c(N=Nc2ccc(C(F)(F)F)cc2[N+](=O)[O-])c(O)[nH]c1=O (stereo not shown) [(14)] | A (The ΔE value is less than 10.) | B (1% or more and less than 5% solubility in chloroform)
10 | Cc1c(N=Nc2ccccc2[N+](=O)[O-])c(O)n(-c2ccccc2)c(=O)c1C(N)=O [(15)] | A (The ΔE value is less than 10.) | B (1% or more and less than 5% solubility in chloroform)
11 | Cc1c(N=Nc2ccccc2[N+](=O)[O-])c(O)n(Cc2ccccc2)c(=O)c1C(N)=O [(16)] | A (The ΔE value is less than 10.) | B (1% or more and less than 5% solubility in chloroform)
12 | CCCCC(CC)Cn1c(O)c(N=Nc2ccccc2[N+](=O)[O-])c(C)c(C(=O)NC2CCCC2)c1=O (stereo not shown) [(17)] | B (The ΔE value is 10 or more and less than 20.) | A (5% or more solubility in chloroform)
13 | CCCCC(CC)Cn1c(O)c(N=Nc2ccc(C(F)(F)F)cc2[N+](=O)[O-])c(C)c(C(=O)NCc2ccccc2)c1=O (stereo not shown) [(18)] | B (The ΔE value is 10 or more and less than 20.) | A (5% or more solubility in chloroform)
14 | CCCCC(CC)Cn1c(O)c(/N=N/c2ccccc2[N+](=O)[O-])c(C)c(C#N)c1=O (stereo not shown) [Comparative Compound (1), reference compound] | C (The ΔE value is 20 or more.) | B (1% or more and less than 5% solubility in chloroform)
15 | CCCCC(CC)Cn1c(O)c(/N=N/c2ccccc2[N+](=O)[O-])c(C)c(C(N)=O)c1=O (stereo not shown) [Compound (4)] | A (The ΔE value is less than 10.) | B (1% or more and less than 5% solubility in chloroform)
16 | CCCCC(CC)Cn1c(O)c(/N=N/c2ccc(C(F)(F)F)cc2[N+](=O)[O-])c(C)c(C(=O)NC(C)(C)C)c1=O (stereo not shown) [Compound (5)] | A (The ΔE value is less than 10.) | A (5% or more solubility in chloroform)
17 | CCCCC(CC)Cn1c(O)c(/N=N/c2ccc(F)cc2[N+](=O)[O-])c(C)c(C(N)=O)c1=O (stereo not shown) [Compound (6)] | A (The ΔE value is less than 10.) | B (1% or more and less than 5% solubility in chloroform)
